Where a chain is given by its changes, count along the chain named. Several values for one entry are separate records, joined by “and”; a condition that tells them apart may be missing. Equal values may be shown once. Read-outs that look alike come from different tables or passages of the source.
Assays:
Assay type in all cases: cell-based
hTA1 F195T = target: T1, hTA1 F195T (Homo sapiens, UniProt Q96RJ0, F195T); assay: GloSensor cAMP accumulation assay, F195T mutant; settings: for ΔpEC50 values (each mutant value - WT average), Mean: F195T mutant minus WT average;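 on all read-outs here: cells transiently co-expressing HA-FLAG-tagged hTA1 and the GloSensor cAMP biosensor, luminescence read 30 min after agonist addition at room temperature, concentration-response fitted by nonlinear regression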
T1 construct: expressed in transfected cells; host or cells: HEK293T
T1 sequence (Q96RJ0 1-339 F195T): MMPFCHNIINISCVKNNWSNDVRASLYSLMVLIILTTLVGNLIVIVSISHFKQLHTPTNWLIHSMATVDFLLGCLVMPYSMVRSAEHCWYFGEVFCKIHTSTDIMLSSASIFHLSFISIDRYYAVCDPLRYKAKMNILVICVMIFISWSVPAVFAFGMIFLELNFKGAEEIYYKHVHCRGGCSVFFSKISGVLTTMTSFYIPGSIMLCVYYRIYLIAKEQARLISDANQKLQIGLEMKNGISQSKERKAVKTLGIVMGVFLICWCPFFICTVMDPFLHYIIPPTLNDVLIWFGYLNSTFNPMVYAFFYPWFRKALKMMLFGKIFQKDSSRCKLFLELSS

hTA1 S107C = target: T2, hTA1 S107C (Homo sapiens, UniProt Q96RJ0, S107C); assay: GloSensor cAMP accumulation assay, S107C mutant; settings: for ΔEmax values (each mutant value - WT average): S107C mutant minus WT average;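 on all read-outs here: cells transiently co-expressing receptor and GloSensor biosensor, luminescence read after 30 min agonist exposure at room temperature, concentration-response fitted by nonlinear regression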
T2 construct: expressed in transfected cells; host or cells: HEK293T
T2 sequence (Q96RJ0 1-339 S107C): T1 sequence (Q96RJ0 1-339 F195T) with S107C, T195F

[1] = target: T3, β2AR-Nterm-hTA1-F112^3.41W (CryoEM Construct) (Homo sapiens, UniProt Q96RJ0, F112W); assay: GloSensor cAMP accumulation assay, cryoEM construct; settings: for ΔEmax values (each mutant value - WT average), Mean / ΔpEC50 values (each mutant value - WT average), Mean: Cryo EM Construct minus WT average; for Normalized Luminescence Counts (N=2): log[Compound], M = -5, single replicates; for Emax: read-out: Span ± SEM (Emax normalized to β-PEA);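 on Normalized Luminescence Counts (N=2): normalized to the maximum response of β-PEA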;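 on all read-outs here: cells transiently co-transfected with the receptor construct and GloSensor cAMP biosensor, luminescence read after 30 min compound exposure at room temperature in the dark as cAMP accumulation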
T3 construct: FLAG (N); 10xHis (N); TEV protease site (N); expressed in transfected cells; host or cells: HEK293T
T3 sequence (Q96RJ0 with tags, fused parts or gaps F112W): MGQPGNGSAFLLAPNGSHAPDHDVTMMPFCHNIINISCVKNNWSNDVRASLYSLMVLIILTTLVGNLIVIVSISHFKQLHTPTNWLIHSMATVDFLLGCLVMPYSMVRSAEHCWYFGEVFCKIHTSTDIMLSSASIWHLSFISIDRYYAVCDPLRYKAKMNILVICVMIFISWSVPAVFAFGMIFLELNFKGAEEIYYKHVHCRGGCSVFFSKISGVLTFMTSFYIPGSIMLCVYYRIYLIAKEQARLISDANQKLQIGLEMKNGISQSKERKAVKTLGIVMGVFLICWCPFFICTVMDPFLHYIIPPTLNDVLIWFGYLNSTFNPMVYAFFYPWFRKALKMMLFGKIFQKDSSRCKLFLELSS

hTA1 R83H = target: T4, hTA1 R83H (Homo sapiens, UniProt Q96RJ0, R83H); assay: GloSensor cAMP accumulation assay, R83H mutant; settings: for ΔEmax values (each mutant value - WT average) / ΔpEC50 values (each mutant value - WT average): R83H mutant minus WT average;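 on all read-outs here: cells transiently co-expressing hTA1 and a cAMP GloSensor, luminescence read 30 min after agonist addition at room temperature, concentration–response fitted by non-linear regression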
T4 construct: expressed in transfected cells; host or cells: HEK293T
T4 sequence (Q96RJ0 1-339 R83H): T1 sequence (Q96RJ0 1-339 F195T) with R83H, T195F

[2] = F195T mutant, Figure 5B, each row one independent experiment (3 replicates)
[3] = F195T mutant, Figure 5B, β-PEA = 100, each row one independent experiment (3 replicates)
[4] = S107C mutant, β-PEA = 100, each line an independent experiment, 3 replicates
[5] = Cryo EM Construct, mean of each independent experiment (3 replicates)
[6] = CryoEM Construct, n=2, read-out: EC50
[7] = R83H mutant, β-PEA = 100, each line an independent experiment, 3 replicates
[8] = F195T, n=2, read-out: Span ± SEM (Emax normalized to β-PEA)
[9] = S107C, n=2, read-out: Span ± SEM (Emax normalized to β-PEA)

## NCCc1ccc(Oc2ccc(O)cc2)c(I)c1 [T1AM, 3-iodothyronamine]
hTA1 F195T; Figure 5B
  ΔpEC50 values (each mutant value - WT average), Mean: -0.7125 and -0.7788
hTA1 F195T; [2]
  pEC50 values, Mean: 5.417 and 5.35
hTA1 F195T; [3]
  Emax values, Mean: 72.2975 and 58.7221
hTA1 F195T; F195T, n=2
  Span ± SEM (Emax normalized to β-PEA): 65.51 ± 6.79
  pEC50 ± SEM: 6.67 ± 1.32
hTA1 F195T; F195T, n=2, read-out: EC50
  EC50: 0.213 µM
hTA1 S107C
  ΔEmax values (each mutant value - WT average): 9.303
hTA1 S107C; [4]
  Emax values, Mean: 79.7491 and 64.3505
hTA1 S107C; S107C, n=2
  Span ± SEM (Emax normalized to β-PEA): 72.05 ± 7.70
  pEC50 ± SEM: 5.87 ± 0.53
hTA1 S107C; S107C, n=2, read-out: EC50
  EC50: 1.35 µM
[1]
  ΔEmax values (each mutant value - WT average), Mean: 57.4068 and 36.3707
[1]; [5]
  Emax values, Mean: -0.05087 and 0.4178
  pEC50 values, Mean: 6.078 and 6.547
[1]; CryoEM Construct
  Normalized Luminescence Counts (N=2): 123.162 and 140.16 and 121.528 and 161.688
[1]; CryoEM Construct, n=2
  Span ± SEM (Emax normalized to β-PEA): 115.44
  pEC50 ± SEM: 6.3 ± 0.04
[1]; [6]
  EC50: 0.491 µM
hTA1 R83H
  ΔEmax values (each mutant value - WT average): -50.5458
hTA1 R83H; [7]
  Emax values, Mean: 19.9005 and -6.007
hTA1 R83H; R83H, n=2
  Span ± SEM (Emax normalized to β-PEA): 6.95 ± 12.95

## CCC(CC1COC(N)=N1)c1ccccc1 (stereo not shown) [Ro5256390]
hTA1 F195T; EC50, F195T, n=2
  EC50: 0.0029 µM
hTA1 F195T; [3]
  Emax values, Mean: 107.711
hTA1 F195T; pEC50 values, Mean, F195T mutant, Figure 5B, each row one independent experiment (3 replicates)
  EC50: 0.00163 µM and 0.00403 µM
hTA1 F195T; read-out: Emax values, Mean, F195T mutant, Figure 5B, β-PEA = 100, each row one independent experiment (3 replicates)
  Emax: 105%
hTA1 F195T; read-out: Span ± SEM (Emax normalized to β-PEA), F195T, n=2
  Emax: 106 ± 1.33%
hTA1 S107C; EC50, S107C, n=2
  EC50: 0.504 µM
hTA1 S107C; S107C
  decrease in potency vs wild type: approximately 100 fold
hTA1 S107C
  ΔEmax values (each mutant value - WT average): -34.2322
hTA1 S107C; [4]
  Emax values, Mean: 69.072 and 124.486
hTA1 S107C; read-out: Span ± SEM (Emax normalized to β-PEA), S107C, n=2
  Emax: 88.8 ± 19.8%
[1]
  ΔpEC50 values (each mutant value - WT average), Mean: 0.183 and 0.4564
  Emax: 102 ± 2.88%
[1]; CryoEM Construct
  Normalized Luminescence Counts (N=2): 109.262 and 115.846 and 129.746 and 127.392
[1]; EC50, CryoEM Construct, n=2
  EC50: 0.00247 µM
[1]; pEC50 values, Mean, Cryo EM Construct, mean of each independent experiment (3 replicates)
  EC50: 0.0035 µM and 0.00187 µM
hTA1 R83H; EC50, R83H, n=2
  EC50: 0.00519 µM
hTA1 R83H
  ΔEmax values (each mutant value - WT average): -44.6015
  ΔpEC50 values (each mutant value - WT average): -0.01027 and 0.0342
hTA1 R83H; [7]
  Emax values, Mean: 58.7027 and 38.4174
hTA1 R83H; pEC50 values (Mean), R83H mutant, each line an independent experiment, 3 replicates
  EC50: 0.00546 µM and 0.00493 µM
hTA1 R83H; read-out: Span ± SEM (Emax normalized to β-PEA), R83H, n=2
  Emax: 48.6 ± 10.1%

## Cc1c(F)cccc1[C@H]1COC(N)=N1 [Ro5263397]
hTA1 F195T; [2]
  pEC50 values, Mean: 8.682 and 8.281
hTA1 F195T; [3]
  Emax values, Mean: 106.681 and 96.1093
hTA1 F195T; F195T, n=2
  Span ± SEM (Emax normalized to β-PEA): 101.40 ± 5.29
  pEC50 ± SEM: 7.68 ± 0.60
hTA1 F195T; F195T, n=2, read-out: EC50
  EC50: 0.0209 µM
hTA1 S107C; S107C
  decrease in potency vs wild type: approximately 100 fold
hTA1 S107C
  ΔEmax values (each mutant value - WT average): 21.9095
hTA1 S107C; S107C mutant, each line an independent experiment, 3 replicates
  pEC50 values, Mean: 7.847 and 7.402
hTA1 S107C; [4]
  Emax values, Mean: 108.613 and 99.8921
hTA1 S107C; S107C, n=2
  Span ± SEM (Emax normalized to β-PEA): 112.19
  pEC50 ± SEM: 6.61 ± 0.80
hTA1 S107C; S107C, n=2, read-out: EC50
  EC50: 0.248 µM
[1]
  ΔEmax values (each mutant value - WT average), Mean: 19.0137 and 21.294
  ΔpEC50 values (each mutant value - WT average), Mean: -0.1667 and 0.1313
[1]; [5]
  Emax values, Mean: -0.1667 and 0.1313
  pEC50 values, Mean: 8.664 and 8.962
[1]; CryoEM Construct
  Normalized Luminescence Counts (N=2): 130.633 and 139.904 and 147.826 and 114.773
[1]; CryoEM Construct, n=2
  Span ± SEM (Emax normalized to β-PEA): 106.6 ± 2.69
  pEC50 ± SEM: 8.82 ± 0.06
[1]; [6]
  EC50: 0.0015 µM
hTA1 R83H
  ΔEmax values (each mutant value - WT average): -44.7513
  ΔpEC50 values (each mutant value - WT average): -0.3934 and -0.2739
hTA1 R83H; R83H mutant, each line an independent experiment, 3 replicates
  pEC50 values, Mean: 8.438 and 8.557
hTA1 R83H; [7]
  Emax values, Mean: 41.952 and 25.7686
hTA1 R83H; R83H, n=2
  Span ± SEM (Emax normalized to β-PEA): 33.86 ± 8.09
  pEC50 ± SEM: 8.5 ± 0.15
hTA1 R83H; R83H, n=2, read-out: EC50
  EC50: 0.00318 µM

## NCCc1ccc(O)cc1 [TYR, tyramine]
hTA1 F195T; F195T
  increase in potency vs wild type: 26 fold
hTA1 F195T; F195T mutant, Figure 5B, each row one independent experiment (3 replicates), read-out: pEC50 values, Mean (converted)
  EC50: 0.0102 µM and 0.0246 µM
hTA1 F195T; [3]
  Emax values, Mean: 119.677 and 98.2455
hTA1 F195T; F195T, n=2, read-out: EC50
  EC50: 0.00634 µM
hTA1 F195T; [8]
  Emax: 109%
hTA1 S107C
  ΔEmax values (each mutant value - WT average): 8.654
hTA1 S107C; [4]
  Emax values, Mean: 107.638 and 133.074
hTA1 S107C; S107C, n=2, read-out: EC50
  EC50: 0.186 µM
hTA1 S107C; [9]
  Emax: 120%
[1]
  ΔEmax values (each mutant value - WT average), Mean: 14.87 and 14.1384
  ΔpEC50 values (each mutant value - WT average), Mean: 0.1106 and 0.3686
[1]; [5]
  Emax values, Mean: 0.3686
[1]; Cryo EM Construct, mean of each independent experiment (3 replicates), read-out: pEC50 values, Mean (converted)
  EC50: 0.322 µM and 0.178 µM
[1]; CryoEM Construct
  Normalized Luminescence Counts (N=2): 108.729 and 109.99 and 112.27 and 114.944
[1]; [6]
  EC50: 0.235 µM
[1]; CryoEM Construct, n=2
  Emax: 113 ± 2.5%
[1]; CryoEM Construct, n=2, read-out: pEC50 ± SEM (converted)
  EC50: 0.24 µM
hTA1 R83H
  ΔEmax values (each mutant value - WT average): -13.6885
hTA1 R83H; R83H mutant, each line an independent experiment, 3 replicates, read-out: pEC50 values (Mean) (converted)
  EC50: 5.33 µM
hTA1 R83H; R83H mutant, β-PEA = 100, each line an independent experiment, 3 replicates, read-out: Emax values (Mean)
  Emax: 85.3%
hTA1 R83H; R83H, n=2, read-out: EC50
  EC50: 31.4 µM

## CCc1[nH]nc(C(=O)Nc2ccc([C@H]3CNCCO3)cc2)c1C [ralmitaront]
hTA1 F195T; Figure 5B
  ΔpEC50 values (each mutant value - WT average), Mean: 0.04071 and 0.07112
hTA1 F195T; [3]
  Emax values, Mean: 86.6537
hTA1 F195T; F195T mutant, Figure 5B, β-PEA = 100, each row one independent experiment (3 replicates), read-out: Emax values, Mean
  Emax: 67.7%
hTA1 F195T; [8]
  Emax: 77.2 ± 9.48%
hTA1 S107C
  ΔEmax values (each mutant value - WT average): 1.2358
hTA1 S107C; [4]
  Emax values, Mean: 57.0471
hTA1 S107C; S107C mutant, β-PEA = 100, each line an independent experiment, 3 replicates, read-out: Emax values (Mean)
  Emax: 41.3%
hTA1 S107C; [9]
  Emax: 49.2 ± 7.85%
[1]
  ΔEmax values (each mutant value - WT average), Mean: 72.2357 and 63.0743
  ΔpEC50 values (each mutant value - WT average), Mean: -1.146 and -1.03
[1]; [5]
  Emax values, Mean: -1.146 and -1.03
[1]; CryoEM Construct
  Normalized Luminescence Counts (N=2): 105.279 and 102.248 and 77.3142 and 99.3117
[1]; CryoEM Construct, n=2
  Emax: 107 ± 3.32%
hTA1 R83H
  ΔEmax values (each mutant value - WT average): -30.9711
hTA1 R83H; [7]
  Emax values, Mean: 9.143 and -4.118
hTA1 R83H; R83H, n=2, read-out: Span ± SEM (Emax normalized to β-PEA)
  Emax: 2.51 ± 6.63%

From paper PMC10762035, “Molecular basis of human trace amine-associated receptor 1 activation” (Nature Communications, 2024)
